Measured values taken from PubChem BioAssay (NCI).
Several values for one entry are separate records, joined by “and”; a condition that tells them apart may be missing. Equal entries are not always repeated.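 Step 1: Grow cells in 96-well plates. Step 2: Expose to compound for 48 hours at 5 concentrations. Step 3: Interpolate endpoints linearly; if unreached, use highest concentration. At the GI50, growth is halved. Definition used: TGI = concentration required for complete inhibition of growth.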 Where a SMILES comes first, the peptide text is derived from it. [ ]: non-standard residue; d: D form. The star is where a group is joined. Phe(4-NO2) = N[CH](Cc1ccc([N+](=O)[O-])cc1)C(=O)O; Boc = CC(C)(C)OC(=O)*

Legend:
Experiment in all cases: NCI-60 cell line screen, 48 h
[1] = tested on: NCI/ADR-RES ovarian
[2] = tested on: HT29 colon
[3] = tested on: SNB-19 CNS
[4] = tested on: CCRF-CEM leukemia
[5] = tested on: 786-0 renal
[6] = tested on: HCT-116 colon
[7] = tested on: SF-539 CNS
[8] = tested on: UACC-257 melanoma
[9] = tested on: HOP-92 NSCLC
[10] = tested on: NCI-H522 lung

| SMILES | TGI [1] | TGI [2] | TGI [3] | TGI [4] | TGI [5] | TGI [6] | TGI [7] | TGI [8] | TGI [9] | TGI [10] | GI50 [1] | GI50 [2] | GI50 [3] | GI50 [4] | GI50 [6] | GI50 [7] | GI50 [8] | GI50 [10] | GI50 [9] |
| --- | --- | --- | --- | --- | --- | --- | --- | --- | --- | --- | --- | --- | --- | --- | --- | --- | --- | --- | --- |
| CCOC(=O)c1cc2c3c(c(C(C)=O)c(OC)c2[nH]1)N(C(=O)CC)CC3 | 31 µM | 30.5 µM | 26.5 µM | 71.4 µM | 34.9 µM | 30.9 µM | 41.7 µM | 49.4 µM | 28.9 µM |  |  |  |  |  |  |  |  |  |  |
| O=c1[nH]nc(-c2ccccc2)c2[nH]c3c(c12)Cc1ccccc1-3 | > 100 µM | > 70 µM | > 100 µM | > 100 µM | > 100 µM | > 100 µM | > 28.3 µM | > 100 µM | 9.68 µM |  |  |  |  |  |  |  |  |  |  |
| Cc1nc2ccc(Br)cc2c(=O)n1-c1ccc(N)cc1 | > 100 µM | > 100 µM | > 100 µM | > 100 µM | > 100 µM | > 100 µM | > 100 µM | > 100 µM | > 100 µM |  |  |  |  |  |  |  |  |  |  |
| COc1ccc(/C=C2\CCCc3ccccc3C2=O)cc1 | > 100 µM | 14.6 µM |  | 24.8 µM | 12.2 µM | 20.5 µM | 5.11 µM | 37.8 µM | 88.1 µM | 1.71 µM |  |  |  |  |  |  |  |  |  |
| Cc1cc(C)c2c(c1)C/C(=C\c1cccc(C)c1C(=O)O)C2=O |  | > 100 µM | > 100 µM | > 100 µM | > 100 µM | > 100 µM | > 100 µM | > 100 µM | > 100 µM | > 100 µM |  |  |  |  |  |  |  |  |  |
| O=C1CCCCC/C1=C\c1cccc(F)c1 | > 100 µM | > 100 µM | > 100 µM | 81.4 µM | > 100 µM | > 100 µM | > 100 µM | > 100 µM |  |  |  |  |  |  |  |  |  |  |  |
| CC(=O)/C=C/c1ccccc1 | > 100 µM | > 100 µM | > 100 µM | > 100 µM | 49.1 µM | > 100 µM | 64.6 µM | > 100 µM |  | 32.6 µM |  |  |  |  |  |  |  |  |  |
| C/C(=N\Nc1nc2ccccc2[nH]1)c1ncccn1 | 0.426 µM |  | > 100 µM | > 100 µM | > 100 µM | 1.74 µM | 0.0543 µM | > 35.2 µM | 1.93 µM | > 64.3 µM |  |  |  |  |  |  |  |  |  |
| [N-]=[N+]=Nc1nc2ccccc2c(N=[N+]=[N-])c1Cl | > 100 µM | > 100 µM | > 100 µM | > 100 µM | > 100 µM | > 100 µM | > 100 µM | > 100 µM | > 100 µM |  |  |  |  |  |  |  |  |  |  |
| N/N=C(/N)SCCCCCCCCCCS/C(N)=N/N | 58.2 µM | 27.7 µM | > 100 µM | > 100 µM | > 100 µM | > 100 µM | > 100 µM | > 100 µM |  | 65.6 µM |  |  |  |  |  |  |  |  |  |
| O=C1c2ccccc2C2(c3ccc(F)cc3)NCCN12 (centres undefined) | > 100 µM | > 100 µM | > 100 µM | > 100 µM | > 100 µM | > 100 µM |  | > 100 µM |  | > 100 µM |  |  |  |  |  |  |  |  |  |
| O=C(Nc1ccc(-n2cc(-c3ccncc3)c(-c3ccc(O)c(Cl)c3)n2)cc1)c1ccc(Cl)c(C(F)(F)F)c1 | > 50 µM | 2.72 µM | > 50 µM | > 50 µM |  | 7.04 µM | 3.41 µM | 34.5 µM | 4.55 µM | 4.88 µM | 2.57 µM | 1.2 µM | 2.52 µM | 0.275 µM | 1.75 µM | 0.96 µM | 4.87 µM | 1 µM | 1.07 µM |
| O=C1C(N2CCN(CCOCCO)CC2)=C(Cl)C(=O)c2ncccc21 | > 100 µM | 46 µM |  | 4.44 µM and 35.9 µM | 36 µM | 33.5 µM | 44.6 µM | 39.9 µM | 6.27 µM and 31.4 µM | 4.22 µM and 32.6 µM |  |  |  | 13.5 µM | 18.5 µM |  |  | 17.7 µM | 16.7 µM |
| Cn1c2ccccc2n2c3ncccc3c(=O)cc12 | > 100 µM | > 100 µM | > 100 µM |  | > 100 µM | 85.9 µM | > 100 µM | > 100 µM | > 100 µM | > 100 µM |  |  |  |  |  |  |  |  |  |
| Oc1c(Cl)cc2cc1-c1cc(cc(Cl)c1O)CCc1c(cc(Cl)c(O)c1Cl)-c1cc(Cl)c(c(Cl)c1O)/C=C\2 | 30.8 µM | 25.2 µM | 26 µM | > 50 µM | 16.6 µM | 15.3 µM |  | 35.8 µM | 34.7 µM |  |  |  |  |  |  |  |  |  |  |
| CCOC(=O)CCc1cn2cc(Br)nc(OC)c2n1 | > 100 µM | > 100 µM | > 100 µM | > 100 µM | > 100 µM | > 100 µM | > 100 µM | > 100 µM |  | > 100 µM |  |  |  |  |  |  |  |  |  |
| O=CC(O)C(O)C(O)C(O)COC(=O)NCCCCC(=O)C(F)(F)C(F)(F)C(F)(F)C(F)(F)C(F)(F)C(F)(F)C(F)(F)F (centres undefined) | > 100 µM | > 100 µM | 31.8 µM | 56 µM | > 100 µM | 33.4 µM | 39.2 µM |  | 31.8 µM |  |  |  |  |  |  |  |  |  |  |
| CCOC(=O)CCC(NC(=O)C(Cc1ccc([N+](=O)[O-])cc1)NC(=O)OC(C)(C)C)C(=O)NC(CCC(=O)OCC)C(=O)OCC (centres undefined) (Boc-[Phe(4-NO2)]-Glu(OEt)-Glu(OEt)-OEt; configuration not given here) |  | 31.5 µM | > 100 µM |  | 30.5 µM | 38.5 µM |  |  | 34.7 µM |  |  |  |  |  |  |  |  |  |  |
| COc1cccc2c1OC1c3ccccc3OCC1(O)C2 (centres undefined) | > 100 µM | > 100 µM |  | > 100 µM | > 100 µM | > 100 µM | > 100 µM | > 100 µM | > 100 µM | > 100 µM |  |  |  |  |  |  |  |  |  |
| Cc1ccc(S(=O)(=O)OCCC2CN(C(=O)OCc3ccccc3)C(C)(C)O2)cc1 (centres undefined) | 15.7 µM |  | 27.3 µM | > 100 µM | > 100 µM | > 100 µM | > 100 µM | > 100 µM | > 100 µM | 20.1 µM |  |  |  |  |  |  |  |  |  |
| Oc1ccc2ccccc2c1OCc1nnc(CCCCCCCCc2nnc(COc3c(O)ccc4ccccc34)n2Nc2ccccc2)n1Nc1ccccc1 | 56.9 µM | 36.3 µM | > 100 µM |  | 58.7 µM | 26 µM | 26.7 µM | > 80 µM | 61.5 µM | 26.6 µM |  |  |  |  |  |  |  |  |  |
